Measurements from patent US20090111822A1, “1,2,3-TRIAZOLE PYRROLIDINE DERIVATIVES AS MODULATORS OF MGLUR5” (AstraZeneca AB, priority 2007, published 2009).

Tests used:
[1] = target: T1, human mGluR5d (Homo sapiens, UniProt P41594); assay: FLIPR assay, mGluR5 antagonism (intracellular calcium mobilization); format: cell-based; conditions: cells expressing human mGluR5d; read-out: FLIPR hmGluR5d
T1 construct: expressed in transfected cells; The culture medium holds Hygromycin B and Zeocin, which points to a stably transfected line
T1 sequence (P41594 21-942 isoform P41594-3 limits assumed): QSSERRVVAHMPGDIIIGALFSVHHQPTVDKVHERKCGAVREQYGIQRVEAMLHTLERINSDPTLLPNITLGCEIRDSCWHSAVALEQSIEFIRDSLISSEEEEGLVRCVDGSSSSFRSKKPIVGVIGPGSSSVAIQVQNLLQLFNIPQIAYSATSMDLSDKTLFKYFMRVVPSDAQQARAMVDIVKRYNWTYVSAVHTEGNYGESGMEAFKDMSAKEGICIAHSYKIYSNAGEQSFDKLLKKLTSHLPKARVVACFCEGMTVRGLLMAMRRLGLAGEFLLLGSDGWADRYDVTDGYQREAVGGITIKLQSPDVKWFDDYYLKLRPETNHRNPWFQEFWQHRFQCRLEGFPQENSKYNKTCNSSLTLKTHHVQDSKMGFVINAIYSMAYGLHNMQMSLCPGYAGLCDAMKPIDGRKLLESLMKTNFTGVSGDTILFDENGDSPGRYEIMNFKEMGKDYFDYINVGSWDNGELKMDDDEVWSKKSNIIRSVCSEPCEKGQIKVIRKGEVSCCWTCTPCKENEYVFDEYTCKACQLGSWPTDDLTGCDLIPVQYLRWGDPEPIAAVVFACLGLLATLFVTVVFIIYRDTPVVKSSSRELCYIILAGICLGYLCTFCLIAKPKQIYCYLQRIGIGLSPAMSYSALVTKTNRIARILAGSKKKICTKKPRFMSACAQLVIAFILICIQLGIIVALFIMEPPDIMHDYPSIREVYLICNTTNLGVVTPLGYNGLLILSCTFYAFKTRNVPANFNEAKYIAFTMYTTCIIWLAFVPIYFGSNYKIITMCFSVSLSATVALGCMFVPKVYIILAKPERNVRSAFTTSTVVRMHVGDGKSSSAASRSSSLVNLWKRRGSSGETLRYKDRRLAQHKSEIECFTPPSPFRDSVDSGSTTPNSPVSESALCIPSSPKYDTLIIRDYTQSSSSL
Text: Functional Assessment of mGluR5 Antagonism in Cell Lines Expressing mGluR5D
The properties of the compounds of the invention can be analyzed using standard assays for pharmacological activity. Examples of glutamate receptor assays are well known in the art as described in for example Aramori et al, Neuron 8:757 (1992), Tanabe et al., Neuron 8:169 (1992), Miller et al., J. Neuroscience 15: 6103 (1995), Balazs, et al., J. Neurochemistry 69:151 (1997). The methodology described in these publications is incorporated herein by reference. […]
Cells expressing human mGluR5d as described in WO97/05252 cultured in a mixture of high glucose DMEM with Glutamax (31966-021) (500 mL), 10% dialyzed fetal bovine serum (Hyclone #SH30079.03) (56 mL), 200 μg/mL Hygromycin B (Invitrogen 45-0430, 50 mg/mL) (2.2 mL), 200 μg/mL Zeocin (Invitrogen #R250-01; 100 mg/mL) (1.1 mL) are seeded at a density of 100,000 cells per well on collagen coated clear bottom 96-well plates with black sides and cells were allowed to adhere over night before experiments. […] The fluorescence signal is sampled 50 times at 1-second intervals followed by 3 samples at 5-second intervals immediately after each of the two additions. Responses are measured as the difference between the peak heights of the response to agonist, less the background fluorescence within the sample period. […]

[2] = Determination of brain to plasma ratio in rat; format: in vivo; conditions: brain and plasma, female Sprague Dawley rats, drug in brain over drug in plasma, read-out: Brain/Plasma Ratio of compound in Rat
Description: Brain to plasma ratios are estimated in female Sprague Dawley rats. The compound is dissolved in water or another appropriate vehicle. For determination of brain to plasma ratio the compound is administrated as a subcutaneous, or an intravenous bolus injection, or an intravenous infusion, or an oral administration. At a predetermined time point after the administration a blood sample is taken with cardiac puncture. The rat is terminated by cutting the heart open, and the brain is immediately retained. The blood samples are collected in heparinized tubes and centrifuged within 30 minutes, in order to separate the plasma from the blood cells. The plasma is transferred to 96-well plates and stored at −20° C. until analysis. The brains are divided in halt and each half is placed in a pre-tarred tube and stored at −20° C. until analysis. Prior to the analysis, the brain samples are thawed and 3 mL/g brain tissue of distilled water is added to the tubes. The brain samples are sonicated in an ice bath until the samples are homogenized. Both brain and plasma samples are precipitated with acetonitrile. After centrifugation, the supernatant is diluted with 0.2% formic acid. […] After reconstitution of the residuals the samples are ready for injection onto the HPLC column.

| IC50 [1] | Kp [2] | Structure (SMILES) |
| --- | --- | --- |
| 116 nM | < 0.015 | Cn1c(-c2cccnc2)nnc1N1CCC[C@@H]1c1cn(-c2cccc(Cl)c2)nn1 [Example 8.2, 3-(5-{(2R)-2-[1-(3-chlorophenyl)-1H-1,2,3-triazol-4-yl]pyrrolidin-1-yl}-4-methyl-4H-1,2,4-triazol-3-yl)pyridine] |
| 58 nM | 0.03 | Cn1c(-c2ccncc2)nnc1N1CCC[C@@H]1c1cn(-c2cccc(Cl)c2)nn1 [Example 8.1, 4-(5-{(2R)-2-[1-(3-Chlorophenyl)-1H-1,2,3-triazol-4-yl]pyrrolidin-1-yl}-4-methyl-4H-1,2,4-triazol-3-yl)pyridine] |
